The text below walks through data of patent publication US5274002A, “Trisubstituted phenyl analogs having activity for congestive heart failure” (Warner-Lambert Company, priority 1990, dated 1993).

pEC50: −log10 of the molar value.

One assay deals with anesthetized dog. The assay is described as follows: in vivo myocardial inotropic activity in the anesthetized dog. The conditions noted are these: 1.0 mg/kg, change from control data prior to dosing. On the procedure:
TEST FOR IN VIVO MYOCARDIAL INOTROPIC ACTIVITY IN THE ANESTHETIZED DOG
Adult mongrel dogs of either sex are anesthetized with pentobarbital, 35 mg/kg, IV, and are maintained under anesthesia with a continuous infusion of pentobarbital, 3.5 mg/kg/hr. The trachea is intubated, but the animals are permitted to breathe spontaneously. A cannula is inserted into the femoral vein for administering test agents. A Millar catheter tip pressure transducer or a fluid filled catheter is inserted into the ascending aorta via the femoral artery for measuring pressure. A Millar catheter tip pressure transducer is passed into the left ventricle via the left carotid artery for measuring left ventricular blood pressure. Needle electrodes are placed subcutaneously for recording a lead II electrocardiogram. Before administering test agents, control data is acquired over a period of at least thirty minutes.
The test agent is dissolved in dimethylacetamide. Each dose is administered in a volume of 0.5 ml over a period of one minute. Appropriate vehicle controls are also administered.
When tested by this protocol, representative compounds of formula I, when administered at a dose of 1 mg/kg, produced an increase in contractility, a minimal increase in blood pressure, and an increase in heart rate as shown in the following Table B.

Assay [1] has as its system isolated Langendorff rat heart. Nature of the assay: isolated Langendorff rat heart (CVIH), coronary flow. The conditions noted are these: In Vitro Langendorf Isolated Rat Heart, constant perfusion pressure 70 mm Hg, 37° C.; for EC25: read-out: EC 25 (Coronary Flow); for pEC50: read-out: EC 50 (Coronary Flow). On the procedure: TEST FOR INOTROPIC, CHRONOTROPIC, AND VASCULAR ACTIVITIES IN THE ISOLATED LANGENDORFF RAT HEART (CVIH)
Male rats (400-600 gms) are pretreated with 2000 units Na heparin (Parke-Davis) and anesthetized with Na pentobarbital (50 mg/kg, Butler Co.) administered intraperitoneally. Once anesthetized, the rat heart is rapidly excised, the ascending aorta fitted to the aortic perfusion cannula, and secured with a ligature. The coronary arteries were perfused initially at a rate of about 15 ml/min for two to three minutes, after which they are perfused at constant pressure of 70 mm Hg and temperature of 37° C. The electrocardiogram (ECG) is recorded using two platinum electrodes positioned at the base and apex of the left ventricle. A second heart is excised, cannulated, and perfused by the same method outlined above. Both hearts are tested in parallel. The standard physiological salt solution (PSS) is a modified Krebs-Hanseleit bicarbonate buffer of the following composition in mM concentration: NaCl, 127; NaHCO3, 25; dextrose, 5.5; Na Pyruvate, 2.0; KCl, 4.7;MgSO4, 1.1; KH2 PO4, 1.2; CaCl2 ·2H2O, 2.5; CaNa2 EDTA, 0.05.
A 30-minute stabilization period is observed before starting the test protocol.
Microprocessor Controlled Coronary Perfusion and Drug Delivery System
The microprocessor control system is a servo mechanism which permits coronary perfusion pressure (CPP) and drug concentration to be maintained constant independent of changes in coronary flow. The level at which CPP and drug concentration are maintained can be changed by commands communicated through the microprocessor keyboard. Dose-response curves are carried out by perfusing a solution at a specified drug concentration (DC) at rates proportional to total coronary flow (CFT). Drug concentrations are increased by proportionate increases in the rate of DC infusion over CFT via the microprocessor keyboard. The proportional flow rates for DC:CFT is about 0.0002:1 at the low end and 0.02:1 at the high end of the dose-response curve. Dose-response curves encompassing at least two log doses are carried out by preparing two DCs with a concentration difference of 1:100. Following the first dose range of two log doses, the DC is switched, proportional pumping rate adjusted, and the dose-response curve continued for another two log doses. The standard dose-response curve is carried out in one-half log dose increments starting at a subthreshold dose and ending at a dose which produces near maximal response in activity. Standard reference compounds are tested over the range of 10^-9 to 10^-6 M.
Measurements are for coronary flow (CF). Units are: CF, milliliters/minute (ml/min). CF is calculated by recording analog outputs from pumps 1 and 2. Outputs from pump #1=CFT and the output from pump #2=CF for heart B (CFB) CF for heart A (CFA) is calculated (CFT -CFB =CFA).
Using the above coronary blood flow evaluation technique, the effects of the compounds of each indicated example is shown as the EC (effective concentration) 25/(effective concentration) EC 50.

In the case of `COC(=O)CCc1ccc(OC)c(OC2CCCC2)c1` [Example 9, Methyl 3-(3-cyclopentoxy-4-methoxyphenyl)-n-propionate], in the assay with anesthetized dog, the “Blood Pressure, percent increase (+) or decrease (-) from control data” value is “+5%”; the “Contractility, percent increase (+) or decrease (-) from control data” value is on record as “+36%”; the “Heart Rate, percent increase (+) or decrease (-) from control data” value is listed as “+41%”. Moreover, in assay [1], the EC25 is 15 µM and the pEC50 was 4.66.

Consider `COc1ccc(CCCO)cc1OC1CCCC1` [Example 19, 3-(3-Cyclopentoxy-4-methoxyphenyl)-n-1-propanol], for which, in the assay on anesthetized dog, the “Blood Pressure, percent increase (+) or decrease (-) from control data” value is “+9%”; the “Contractility, percent increase (+) or decrease (-) from control data” value is given as “+91%”; the “Heart Rate, percent increase (+) or decrease (-) from control data” value is listed as “+25%”. In addition, in assay [1], the EC25 amounted to 2 µM and the pEC50 is 5.15.

In the case of `COC(=O)/C=C/c1ccc(OC)c(OC2CCCC2)c1` [Example 3, Methyl 3-(3-cyclopentoxy-4-methoxyphenyl)-E-propenoate], in the assay on anesthetized dog, the “Blood Pressure, percent increase (+) or decrease (-) from control data” value is “+16%”; the “Contractility, percent increase (+) or decrease (-) from control data” value was “+77%”; the “Heart Rate, percent increase (+) or decrease (-) from control data” value was “+20%”. For the same compound, in assay [1], the EC25 worked out at 2 µM and the pEC50 was below 3.30.

For the compound `COc1ccc(CCC(N)=O)cc1OC1CCCC1` [Example 16, 3-(3-Cyclopentoxy-4-methoxyphenyl)-n-propionyl amide], in the assay with anesthetized dog, the “Blood Pressure, percent increase (+) or decrease (-) from control data” value is reported as “+5%”; the “Contractility, percent increase (+) or decrease (-) from control data” value is “+127%”; the “Heart Rate, percent increase (+) or decrease (-) from control data” value was “+25%”. Further, in assay [1], the EC25 was found to be 3 µM and the pEC50 was 5.00.

Consider `COc1ccc(CCC(=O)O)cc1OC1CCCC1` [Example 13, 3-(3-Cyclopentoxy-4-methoxyphenyl)-n-propanoic acid], for which, in the assay with anesthetized dog, the “Blood Pressure, percent increase (+) or decrease (-) from control data” value is reported as “+9%”; the “Contractility, percent increase (+) or decrease (-) from control data” value was “+47%”; the “Heart Rate, percent increase (+) or decrease (-) from control data” value is listed as “+23%”. Besides, in assay [1], the EC25 came to 4 µM and the pEC50 was 4.82.

Take `COc1ccc(/C=C/C=O)cc1OC1CCCC1` [Example 21, 3-(3-Cyclopentoxy-4-methoxyphenyl)-E-propene-1-aldehyde]: in the assay with anesthetized dog, the “Blood Pressure, percent increase (+) or decrease (-) from control data” value is recorded as -1%; the “Contractility, percent increase (+) or decrease (-) from control data” value is “+62%”; the “Heart Rate, percent increase (+) or decrease (-) from control data” value is listed as “+35%”. In assay [1], the EC25 was found to be 1.1 µM and the pEC50 is 5.70.
